Patent US6994956B2, “Method for assaying enzyme activity” (Bayer Pharmaceuticals Corporation, priority 2003, dated 2006)

Legend:
[1] = target: farnesyl-diphosphate synthase (FPPS) (Homo sapiens, UniProt P14324); conditions: FPPS (25 ng), incubated for 2 hours, conditions of FIG. 4
Description: Time course and protein dependence of farnesyl-diphosphate synthase (FPPS)-produced product partitioning into the organic phase. FPPS was incubated at varying concentrations and times at room temperature with 5 μM geranyl pyrophosphate (GPP) and 5 μM IPP (0.0125 μCi; [1-^14C]isopentenyl pyrophosphate) in a buffer containing 25 mM HEPES (pH 7.5), 1 mM DTT, and 1 mM MgCl2 in a total volume of 40 μL. The reaction was terminated by the addition of 10 μL of 5% phosphoric acid, followed by 50 μL Microscint™-CAT. The mix was allowed to incubate two hours prior to data acquisition. […]
A typical 384-well density reaction is partitioned with the following proportion of reagents: 40 μL enzyme assay inhibitor test mix containing FPP synthetase, substrates, test compounds, and buffer components is incubated at room temperature to generate farnesyl diphosphate. […] Enzyme activity is proportional to the radioactivity in the organic phase as determined by liquid scintillation counting (LSC). This radioactivity corresponds to products of acid treatment of the enzyme reaction, farnesol and nerolidol, as determined by LSC of authentic [1,2-^14C]trans, trans farnesol. […] The theoretical signal to background of the assay is established by comparing CPMs in the PPSF using equimolar amounts and equal amounts of radioactivity of radiolabeled substrate and product. […]

[2] = target: fatty acid synthase (FAS) (Homo sapiens, UniProt P49327); assay: Phase partition assay of fatty acid synthase activity; type: biochemical; conditions: FAS (35 ng), incubated for 90 minutes, conditions of FIG. 1
fatty acid synthase (FAS), sequence (P49327 whole entry, species assumed): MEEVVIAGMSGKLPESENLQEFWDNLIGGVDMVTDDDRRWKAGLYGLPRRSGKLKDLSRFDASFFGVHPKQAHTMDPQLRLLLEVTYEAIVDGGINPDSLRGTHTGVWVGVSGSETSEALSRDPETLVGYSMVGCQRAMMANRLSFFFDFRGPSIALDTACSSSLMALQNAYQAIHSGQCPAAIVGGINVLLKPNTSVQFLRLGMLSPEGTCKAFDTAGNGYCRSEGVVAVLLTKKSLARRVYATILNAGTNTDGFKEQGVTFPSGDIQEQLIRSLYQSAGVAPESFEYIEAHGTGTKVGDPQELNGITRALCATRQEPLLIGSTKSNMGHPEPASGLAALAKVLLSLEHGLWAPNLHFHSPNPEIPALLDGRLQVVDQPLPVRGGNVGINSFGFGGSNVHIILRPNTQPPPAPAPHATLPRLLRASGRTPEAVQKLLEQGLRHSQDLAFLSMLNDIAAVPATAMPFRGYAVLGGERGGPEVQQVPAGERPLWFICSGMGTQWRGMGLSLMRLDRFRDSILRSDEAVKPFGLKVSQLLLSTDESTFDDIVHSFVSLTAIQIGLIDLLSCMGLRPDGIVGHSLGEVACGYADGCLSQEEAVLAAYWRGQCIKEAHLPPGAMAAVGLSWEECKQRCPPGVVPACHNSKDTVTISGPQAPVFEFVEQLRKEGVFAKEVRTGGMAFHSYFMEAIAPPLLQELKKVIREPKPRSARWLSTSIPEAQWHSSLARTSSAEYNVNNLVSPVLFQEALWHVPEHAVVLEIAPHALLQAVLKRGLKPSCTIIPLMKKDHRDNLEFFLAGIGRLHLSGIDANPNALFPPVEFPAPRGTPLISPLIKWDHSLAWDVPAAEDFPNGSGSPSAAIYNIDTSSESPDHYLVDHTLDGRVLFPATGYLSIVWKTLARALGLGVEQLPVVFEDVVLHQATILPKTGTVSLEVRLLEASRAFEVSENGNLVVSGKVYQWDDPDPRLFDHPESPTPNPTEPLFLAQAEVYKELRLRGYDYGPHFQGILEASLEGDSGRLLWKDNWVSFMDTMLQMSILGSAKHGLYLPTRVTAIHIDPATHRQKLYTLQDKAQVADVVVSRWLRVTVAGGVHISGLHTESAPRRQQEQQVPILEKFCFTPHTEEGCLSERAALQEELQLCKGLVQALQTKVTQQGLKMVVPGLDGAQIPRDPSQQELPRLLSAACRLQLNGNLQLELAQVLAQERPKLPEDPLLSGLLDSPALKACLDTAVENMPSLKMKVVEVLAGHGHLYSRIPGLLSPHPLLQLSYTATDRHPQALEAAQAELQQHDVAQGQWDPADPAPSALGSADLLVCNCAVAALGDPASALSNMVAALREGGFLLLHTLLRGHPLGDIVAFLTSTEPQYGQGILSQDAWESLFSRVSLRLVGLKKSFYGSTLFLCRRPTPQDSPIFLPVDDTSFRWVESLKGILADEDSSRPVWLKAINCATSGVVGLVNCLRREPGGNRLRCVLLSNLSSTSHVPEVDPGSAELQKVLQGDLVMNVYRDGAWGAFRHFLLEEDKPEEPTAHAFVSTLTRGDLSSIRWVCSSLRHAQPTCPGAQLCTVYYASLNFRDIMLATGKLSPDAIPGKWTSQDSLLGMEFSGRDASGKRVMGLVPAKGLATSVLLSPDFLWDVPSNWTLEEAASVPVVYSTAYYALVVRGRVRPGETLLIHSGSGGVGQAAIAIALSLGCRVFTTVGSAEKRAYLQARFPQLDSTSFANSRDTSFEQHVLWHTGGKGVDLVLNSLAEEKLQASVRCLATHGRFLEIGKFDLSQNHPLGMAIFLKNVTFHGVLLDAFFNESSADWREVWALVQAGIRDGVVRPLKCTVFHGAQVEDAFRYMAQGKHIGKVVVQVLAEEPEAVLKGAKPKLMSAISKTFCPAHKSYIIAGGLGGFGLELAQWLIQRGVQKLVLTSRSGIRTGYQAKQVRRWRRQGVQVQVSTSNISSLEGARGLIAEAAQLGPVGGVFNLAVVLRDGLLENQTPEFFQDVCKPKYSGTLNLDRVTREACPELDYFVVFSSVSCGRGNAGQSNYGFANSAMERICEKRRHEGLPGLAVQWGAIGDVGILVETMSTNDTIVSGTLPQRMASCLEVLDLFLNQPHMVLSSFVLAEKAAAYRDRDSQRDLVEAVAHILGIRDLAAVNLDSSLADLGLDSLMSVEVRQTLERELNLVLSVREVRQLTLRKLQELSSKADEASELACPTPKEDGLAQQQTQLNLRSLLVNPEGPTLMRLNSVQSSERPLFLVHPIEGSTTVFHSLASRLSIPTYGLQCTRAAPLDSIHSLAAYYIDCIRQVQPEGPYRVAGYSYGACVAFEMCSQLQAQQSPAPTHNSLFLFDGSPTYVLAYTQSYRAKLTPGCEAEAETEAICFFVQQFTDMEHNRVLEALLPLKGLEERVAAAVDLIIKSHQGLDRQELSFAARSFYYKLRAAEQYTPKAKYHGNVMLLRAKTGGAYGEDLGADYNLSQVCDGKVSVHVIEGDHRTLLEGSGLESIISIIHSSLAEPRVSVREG
Description: FAS was incubated at varying concentrations and times at room temperature with 400 μM NADPH, 100 μM acetyl-CoA, and 20 μM malonyl-CoA (0.02 μCi [malonyl-2-^14C]-CoA) in buffer containing 50 mM MOPS (pH 6.8), 5 mM DTT, 1 mM EDTA, and 0.03% BSA in a total volume of 100 μL. The reaction was terminated by the addition of 10 μL of 10 N acetic acid, followed by the addition of 150 μL Microscint™-CAT. The mix was allowed to incubate overnight prior to data acquisition.
Inhibition of FAS by cerulenin. FAS (35 ng) was incubated for 90 minutes with cerulenin under conditions described in FIG. 1.
This method of the present invention permits radiometric detection of FAS activity via a gain of signal assay using [2-^14C]malonyl CoA as the radiolabel and partitioning of the radioactive products (^14C-labeled oleic acid and palmitic acid) into the PPSF (Microscint™-E), following acidification and addition of PPSF to the reaction mixture.
A typical 96-well density reaction is partitioned in the following manner: an enzyme assay inhibitor test mix (100 μL) containing enzyme, substrates, test compounds, and buffer components is incubated at room temperature to generate the fatty acid products. […] Enzyme activity is proportional to the radioactivity in the organic phase as determined by liquid scintillation counting. […]

farnesyl-diphosphate synthase (FPPS), sequence (P14324 whole entry): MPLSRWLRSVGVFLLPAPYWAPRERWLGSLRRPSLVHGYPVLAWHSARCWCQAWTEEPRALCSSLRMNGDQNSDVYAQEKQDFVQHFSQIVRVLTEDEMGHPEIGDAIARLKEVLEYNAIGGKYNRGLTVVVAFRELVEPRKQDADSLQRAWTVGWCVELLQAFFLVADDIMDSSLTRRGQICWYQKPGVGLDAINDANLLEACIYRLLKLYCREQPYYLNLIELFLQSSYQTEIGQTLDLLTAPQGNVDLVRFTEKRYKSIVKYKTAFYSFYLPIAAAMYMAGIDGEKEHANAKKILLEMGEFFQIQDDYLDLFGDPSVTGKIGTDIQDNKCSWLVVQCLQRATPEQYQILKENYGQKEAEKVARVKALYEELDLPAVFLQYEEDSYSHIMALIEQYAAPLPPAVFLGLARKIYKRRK

Row | SMILES | Inhibition of FPPS [1] | Inhibition of FAS [2]
1 | NCCCC(O)(P(=O)(O)O)P(=O)(O)O [alendronate] | Inhibition | –
2 | C/C=C/C/C=C/CCC(=O)[C@H]1O[C@H]1C(N)=O [cerulenin] | – | Inhibition
